The values that follow come from US6797461B2, “Tryptase substrates and assay for tryptase activity using same” (Promega Corporation, priority 2000, dated 2004).

Type in all cases: biochemical
Experiment [1] has as its system non-tryptase proteolysis in human serum. Description: Non-tryptase proteolytic activities in serum with protease inhibitors (FIG. 9). The conditions noted are these: 25 μg/ml, 30 minutes at room temperature, Ac-PRNK-ACC 100 μM. On the procedure: Human recombinant β-I tryptase (Promega) was two-fold serially diluted in human serum from 10,000 pg to 190 pg/ml. Aprotinin, Soybean trypsin inhibitor (SBTI) or anti-trypsin was added to each dilution at 25 μg/ml and allowed to incubate at room temperature for 30 minutes. An uninhibited serum standard curve was similarly created. 100 μl of each treated and untreated serum dilution was pipetted in triplicate to a microtiter well plate. Ac-PRNK-ACC (SEQ. ID. NO: 12) was added to 100 μM and the plate incubated at room temperature for 10 minutes prior to reading at an excitation wavelength of 355 nm and emission wavelength of 460 nm.

Experiment [2] deals with T1, recombinant human β-II tryptase (lung tryptase) (Homo sapiens, N132K).
T1 construct: Secreted mature βI- and βII-tryptases were purified to homogeneity; made in house; host or cells: Pichia pastoris GS115
The experiment in a line: Single substrate kinetic analysis of fluorogenic ACC substrates, lung (β-II) tryptase. On the procedure: (§1) βI- and βII-tryptase concentrations ranged from 5 nM to 15 nM. The final concentration of substrate ranged from 5 μM to 200 μM; the concentration of DMSO in the assay was less than 5%. Hydrolysis of ACC substrates was monitored fluorometrically with an excitation wavelength of 380 nm and an emission wavelength of 460 nm on a Fluoromax-2 spectrofluorimeter.
(§2) Tryptase activity was monitored at 30° C. in assay buffer containing 100 mM HEPES, pH 7.5, 10% w/v glycerol, and 0.1 mg/ml heparin. Substrate stock solutions were prepared in DMSO. The final concentration of substrate ranged from 5 μM to […], the concentration of DMSO in the assay was less than 5%. Tryptase concentration was 5 nM.
(§3) Hydrolysis of ACC substrates was monitored fluorometrically with an excitation wavelength of 380 nm and emission wavelength of 450 nm on a Fluoromax-2 spectrofluorimeter. The amino-terminus of each polypeptide was acetylated.
(§4) To quantitate tryptase βI and βII dependence on extended substrate specificity, several peptide substrates were synthesized and the kinetic constants determined for each of the enzymes. […] All of these effects are manifested in the Km term, not the kcat term.
(§5) Kinetic parameters were independently obtained for both recombinant β-I and β-II tryptases against rational substitutions in the substrates at P2-P4 positions.

In experiment [3] the target is T2, recombinant human β-I tryptase (skin tryptase) (Homo sapiens, UniProt Q15661).
T2 construct: Secreted mature βI- and βII-tryptases were purified to homogeneity; made in house; host or cells: Pichia pastoris
Description: Single substrate kinetic analysis of fluorogenic ACC substrates, skin (β-I) tryptase. Here is the method:
as §1, §2, §3, §4, §5

Setting [4] is: Lung (β-II) Tryptase, 30° C., 100 mM HEPES pH 7.5, 10% glycerol, 0.1 mg/ml heparin.
Where [5] appears, read: Skin (β-I) Tryptase, 30° C., 100 mM HEPES pH 7.5, 10% glycerol, 0.1 mg/ml heparin.

Residues, ends and D or L forms follow the SMILES beside them. *: point of attachment. ACC = NC(=O)Cc1cc(=O)oc2cc(N*)ccc12

T2 sequence (Q15661 31-275): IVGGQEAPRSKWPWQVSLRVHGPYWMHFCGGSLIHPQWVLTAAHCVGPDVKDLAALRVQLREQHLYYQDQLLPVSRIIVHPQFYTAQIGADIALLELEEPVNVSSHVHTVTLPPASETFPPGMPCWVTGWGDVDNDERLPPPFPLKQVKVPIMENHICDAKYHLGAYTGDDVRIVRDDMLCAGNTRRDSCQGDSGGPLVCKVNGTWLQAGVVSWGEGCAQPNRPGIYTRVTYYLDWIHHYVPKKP
T1 sequence (Q15661 31-275 N132K): as the sequence (Q15661 31-275) above, with N102K counted along it

For the molecule aprotinin, in experiment [1], the “effect on intrinsic fluorescence associated with non-tryptase proteolysis in serum” value is “significantly and specifically diminished”.

One may read the Km as the substrate concentration at which the rate is half of its maximum. As usually defined, the kcat is the maximal rate divided by the concentration of active sites. Take “Ac-PANK-ACC: acetylated tetrapeptide P-A-N-K with C-terminal 7-amino-4-carbamoylmethyl-coumarin leaving group”: the Km in experiment [2] (setting [4]) was 110 ± 9.8 µM; in experiment [3] (setting [5]), 133 ± 15.6 µM. Further, the kcat came to 20.27 ± 0.48 s⁻¹ in experiment [2] (setting [4]) and 19.06 ± 0.64 s⁻¹ in experiment [3] (setting [5]).

Consider `CC(=O)N1CCC[C@H]1C(=O)N[C@@H](CCCNC(=N)N)C(=O)N[C@H](C(=O)N[C@@H](CCCCN)C(=O)Nc1ccc2c(CC(N)=O)cc(=O)oc2c1)[C@@H](C)O` [Ac-PRTK-ACC] (Ac-PRTK-{ACC}), for which the Km in experiment [2] (setting [4]) was found to be 14.7 ± 1.4 µM; in experiment [3] (setting [5]), 23.4 ± 2.3 µM.

For the molecule `CC(=O)N1CCC[C@H]1C(=O)N[C@@H](CCCNC(=N)N)C(=O)N[C@@H](CC(N)=O)C(=O)N[C@@H](CCCCN)C(=O)Nc1ccc2c(CC(N)=O)cc(=O)oc2c1` [Ac-PRNK-ACC, Acetyl-Prolyl-Arginyl-Asparaginyl-Lysyl-aminoacetamide coumarin] (Ac-PRNK-{ACC}), the Km in experiment [2] (setting [4]) was 8.9 ± 0.9 µM; in experiment [3] (setting [5]), 14.5 ± 1.9 µM.

For `CC(=O)N1CCC[C@H]1C(=O)N[C@@H](CCCNC(=N)N)C(=O)N[C@@H](CC(N)=O)C(=O)N[C@@H](CCCNC(=N)N)C(=O)Nc1ccc2c(CC(N)=O)cc(=O)oc2c1` [Ac-PRNR-ACC] (Ac-PRNR-{ACC}), the results for the Michaelis constant (Km) in experiment [2] (setting [4]) and in experiment [3] (setting [5]) were 16.5 ± 2.7 µM and 18.6 ± 2.6 µM, respectively. Moreover, the “activity relative to Ac-PRNK-ACC substrate (kcat/Km)” value in experiment [2] (tryptase βII, range stated over tryptase βI and βII) is 70-90%; in experiment [3] (tryptase βI, range stated over tryptase βI and βII), 70-90%.
